Results as given in patent US11517617B2, “Methods and compositions for preventing influenza infection” (THE UNIVERSITY OF MELBOURNE, priority 2017, dated 2022).

System: memory CD8^+ T cells within PBMCs
Format: cell-based, human

| Sequence | cross-reactivity of CD8^+ T cells after in vitro expansion with the peptide | recognition of IBV-derived variant by IAV-expanded CD8^+ T cells |
| --- | --- | --- |
| YEDLRVLSA (Influenza B virus) [BNP394-401] | could not expand CD8^+ T cells | to a lesser extent |
| FEDLRVLSA (Influenza A virus) [NP338-345] | recognizing both IAV- and IBV-derived peptides | – |
